Results on 1 compound are retold here after article PMC5554137, “Evaluation of novel factor Xa inhibitors from Oxya chinensis sinuosa with anti-platelet aggregation activity” (Scientific Reports, 2017).

One experiment addresses Protein Ca (Homo sapiens, UniProt P04070). Description: Chromogenic substrate assay, Ki determination, Protein Ca. It is filed as biochemical. The method, then: (§1) The inhibitor (I) constants (Ki) were determined for the inhibition of a series of human enzymes (FXa, thrombin, trypsin, plasmin, protein Ca, streptokinase, tPA, and urokinase) by each compound. Chromogenic substrate assays were performed using a Labsystems IEMS (Cergy Pontoise, France) microtiter plate reader. In each assay, the compound was tested at a minimum of seven concentrations in duplicate to obtain an inhibition curve. Assays were performed according to the following general procedure. In a 96-well microtiter plate, 25 μL of compound, inhibitor solution or buffer was added to 50 μL of substrate. A volume of 25 μL of enzyme solution was added just before the plate was placed in the microtiter plate reader for 1 h at 37 °C. The hydrolysis of the substrate yields p-nitroaniline, which was continuously monitored spectrophotometrically at 405 nm. Data were collected and the initial rate of substrate hydrolysis [Vo (mOD/minute)] was calculated. Following Michaelis-Menten kinetics, the affinity of the enzyme for the substrate, in the absence of the inhibitor (Km) and in the presence of an inhibitor (Kp), was determined to be the negative inverse x-intercept of Lineweaver–Burk plots. The dissociation constant for inhibition (Ki) was calculated using the following equation: Ki = (Km·[I])/(Kp − Km) as described by Williams and Morrison[40].

In experiment [1] the target is T1, FXa (Homo sapiens, UniProt P00742).
T1 construct: purchased Haematologic Technologies (Essex Junction, VT, USA)
Briefly: Chromogenic substrate assay, Ki determination, Factor Xa. It is filed as biochemical. The protocol:
as §1

Experiment [2] has as its target T1, FXa. Briefly: Inhibition of amidolytic activity of FXa toward S-2222 (Michaelis-Menten, Lineweaver-Burk; with or without TFPI). The conditions noted are these: for slope of inhibition activity plot: FXa. It is filed as biochemical. The method, then:
To elucidate the mechanisms responsible for inhibition of coagulation and platelet aggregation by compounds 1–4, inhibition of FXa activity was determined using chromogenic substrates. […] We observed a decrease in Vmax, with no effect on the Km of FXa toward S-2222 in the presence of compound 1. […] We also observed a slope of 0.401 for the control without compound 2, and slopes of 0.442 and 0.465 for compound 2 at concentrations of 2 and 5 µM, respectively. […] We observed a decrease in Vmax, with no effect on the Km of FXa toward S-2222 in the presence of compound 2. […] Inhibition activity plots were obtained for different concentrations of compound 3, showing a slope of 0.388 for the control without compound 3, and slopes of 0.408 and 0.464 for compound 3 at concentrations of 2 and 5 µM, respectively. […] We also observed a slope of 0.363 for the control without compound 4, and slopes of 0.376 and 0.398 for compound 4 at concentrations of 2 and 5 µM, respectively. […] We observed a decrease in Vmax, with no effect on the Km of FXa toward S-2222 in the presence of compound 4.
Figure 6 Effects of compounds 1–4 on inhibition and production of FXa. […] The plots represent means of three independent measurements. (E) Human umbilical vein endothelial cells (HUVECs) were pre-incubated with the indicated concentration of each compound for 10 min. HUVECs stimulated with tumor necrosis factor-α (TNF-α, 10 ng/mL for 6 h) were incubated with FVIIa (10 nM) and FX (175 nM) in the absence or presence of anti-TF IgG (25 µg/mL). FXa production was determined as described in the “ Supplementary Materials and Methods” section. D = 0.2% DMSO used as the vehicle control. (F) Inhibition of FXa by each compound (5 μM) with or without TFPI (2 nM) was monitored using a chromogenic assay. ^* p < 0.05 vs. TNF-α alone (E) or each compound (F) alone, analyzed via one-way ANOVA, followed by Tukey multiple comparison testing.
Each compound with or without TFPI was dissolved in 50 mM Tris-HCl buffer (pH 7.4) containing 7.5 mM EDTA and 150 mM NaCl. Following a 2-min incubation at 37 °C, FXa solution (150 μL, 1 U/mL) was added, followed by incubation at 37 °C for 1 min. S-2222 (an FXa substrate, 150 μL, 1.5 mM) solution was subsequently added, and the absorbance at 405 nm was monitored for 20 min using a spectrophotometer (TECAN, Männedorf, Switzerland). The absorbance-time curve and the slope of the curve (Vi) were used to represent the activity of the enzyme. Distilled water served as a control (the slope of curve V0). The inhibitory effect was calculated according to equation (1):1 Inhibitoryrate(%)=(V0−Vi)/V0×100 where V0 represents the slope of the vehicle and Vi represents the slope of the samples.

Experiment [3] has as its system Streptokinase (Homo sapiens). Description: Chromogenic substrate assay, Ki determination, Streptokinase. The format is biochemical. The method, then:
as §1

The subject of the next experiment is Trypsin. Description: Chromogenic substrate assay, Ki determination, Trypsin. The format is biochemical, human. The method, then:
as §1

In another experiment the target is T2, α-Thrombin (Homo sapiens, UniProt P00734).
T2 construct: FXa converts prothrombin to thrombin; purchased Haematologic Technologies (Essex Junction, VT, USA)
Description: Chromogenic substrate assay, Ki determination, α-Thrombin. The format is biochemical. The protocol: as §1

T1 sequence (P00742 235-488 limits assumed): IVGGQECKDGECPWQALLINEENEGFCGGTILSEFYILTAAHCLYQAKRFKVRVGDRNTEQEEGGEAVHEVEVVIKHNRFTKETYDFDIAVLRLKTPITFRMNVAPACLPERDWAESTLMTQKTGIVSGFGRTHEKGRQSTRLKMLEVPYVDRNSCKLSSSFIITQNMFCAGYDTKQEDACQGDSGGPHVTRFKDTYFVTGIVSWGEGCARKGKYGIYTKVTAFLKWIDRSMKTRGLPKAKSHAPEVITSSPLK
T1 sequence (P00742 41-179 limits assumed): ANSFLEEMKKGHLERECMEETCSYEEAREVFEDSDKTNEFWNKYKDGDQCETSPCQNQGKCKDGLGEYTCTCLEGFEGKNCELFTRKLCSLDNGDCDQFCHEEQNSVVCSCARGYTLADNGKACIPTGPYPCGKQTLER
Chain of Protein Ca (P04070 212-461 limits assumed): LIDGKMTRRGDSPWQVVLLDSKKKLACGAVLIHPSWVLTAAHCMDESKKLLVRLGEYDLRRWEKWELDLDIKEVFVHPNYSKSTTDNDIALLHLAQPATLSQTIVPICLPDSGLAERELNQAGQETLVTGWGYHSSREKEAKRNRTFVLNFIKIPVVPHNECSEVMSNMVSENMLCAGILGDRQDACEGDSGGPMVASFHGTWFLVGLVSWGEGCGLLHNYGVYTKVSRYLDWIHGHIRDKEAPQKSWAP
Chain of Protein Ca (P04070 43-197 limits assumed): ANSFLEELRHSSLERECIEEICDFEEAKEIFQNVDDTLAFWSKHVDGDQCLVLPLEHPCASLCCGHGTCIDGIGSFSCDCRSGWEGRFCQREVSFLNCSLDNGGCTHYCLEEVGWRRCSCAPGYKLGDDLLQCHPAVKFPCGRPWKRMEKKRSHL
Chain of Streptokinase (Homo sapiens) (P00747 581-810 limits assumed): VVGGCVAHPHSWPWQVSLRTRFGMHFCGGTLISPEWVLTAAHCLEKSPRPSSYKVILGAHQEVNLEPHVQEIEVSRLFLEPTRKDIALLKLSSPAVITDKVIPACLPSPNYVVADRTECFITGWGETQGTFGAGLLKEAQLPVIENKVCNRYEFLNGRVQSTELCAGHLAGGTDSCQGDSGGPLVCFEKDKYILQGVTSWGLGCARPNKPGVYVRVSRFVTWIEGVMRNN

Consider `CC(=O)NCCc1ccc2c(c1)O[C@H](c1ccc(O)c(O)c1)[C@H](NC(C)=O)O2` [Compound 1, (2 R,3 R)-2-(3′,4′-dihydroxyphenyl)-3-acetylamino-7-(N-acetyl-2″-aminoethyl)-1,4-benzodioxane], for which the “Ratio = Ki enzyme/Ki Factor Xa, Protein Ca” value on Protein Ca is given as greater than 100. The inhibition constant Ki (as a rule, the dissociation constant of the complex between target and ligand, obtained from inhibition or displacement) was greater than 300 µM on Protein Ca (substrate S-2366); 2.96 ± 0.25 µM on FXa [1] (substrate S-2765 (Table 3), mean ± SD (n = 5)); 2.96 µM on FXa [2] (substrate S-2222); greater than 300 µM in experiment [3] (substrate S-2251); greater than 300 µM at Trypsin (substrate S-2222); greater than 300 µM at α-Thrombin (substrate S-2238). In addition, the “Ratio = Ki enzyme/Ki Factor Xa, Factor Xa” value at FXa [1] was 1. The “Km of FXa toward S-2222 in the presence of compound” value on FXa [2] is listed as “no effect”. In addition, the “Vmax of FXa toward S-2222 in the presence of compound” value on FXa [2] was “decrease”. Besides, the “type of inhibition of FXa (Lineweaver-Burk plots)” value on FXa [2] (S-2222) is “noncompetitive inhibition”. Further, the “slope of inhibition activity plot” value on FXa [2] (compound at 2 µM, S-2222) was 0.707; on FXa [2] (compound at 5 µM, S-2222), 0.957. Also, the “Ratio = Ki enzyme/Ki Factor Xa, Streptokinase” value in experiment [3] is greater than 100. For the same compound, the “Ratio = Ki enzyme/Ki Factor Xa, Trypsin” value with Trypsin is listed as greater than 100. The “Ratio = Ki enzyme/Ki Factor Xa, α-Thrombin” value at α-Thrombin is greater than 100.
